Assay results from patent US9138512B2, “Implant with a surface layer having a topographic modification” (Biotronik AG, priority 2010, dated 2015).

How the values were obtained:
[1] = tested on: Human umbilical vein endothelial cells (HUVEC); experiment: Time to onset of spreading of HUVEC on substrates (time-lapse microscopy); type: cell-based; details: HUVEC on gratings A-10, 50 μM blebbistatin, 10 μM Y27632 or 30 μM ML-7 added 30 minutes before
Experimental: To generate confluent monolayers cells were seeded on COC substrates at high density (60-70×10^4 cell/cm^2) as reported by Lampugnani et al. and cultured for three days. To measure the time to onset of spreading, cells were detached from a subconfluent cell culture and resuspended in pre-warmed medium without antibiotics. The cells were then counted, diluted to reach a concentration of 5×10^4 cells in 1 ml of medium and then seeded onto the substrates.
(§1) For contractility inhibition experiments during endothelial spreading, the cells were treated with DMSO (corresponding v/v), 30 μM ML-7, 10 μM Y27632 or 50 μM blebbistatin. The drugs were dissolved in DMSO (ML-7, blebbistatin) or in distilled water (Y27632) and added to the cells 30 minutes before starting the experiment.
Cell imaging was performed using an inverted Nikon-Ti wide-field microscope (Nikon, Jaw pan) equipped with an Orca R-2 CCD camera (Hamamatsu Photonics, Japan). After cell seeding, the topographic chip was placed under the microscope in an incubated chamber (Life Imaging Services, Switzerland), where temperature and CO2 concentration were maintained at 37° C. and 5%, respectively. Images were collected with a 20×, 0.45 NA long-distance objective (Plan Fluor, Nikon). Endothelial spreading on topographic substrates in topographic chips was recorded in parallel time-lapse movies for up to 6 different substrates (a flat control and five different gratings). Before starting the experiment, five non-overlapping positions were chosen within each substrate and stored in a position list. Immediately after cell seeding, the experiment was started to automatically acquire a differential interference contrast (DIC) image at each saved position with a time resolution of 1 minute for a total of one or two hours. Focal drift during the experiments was eliminated using the microscope's PFS autofocus system. At the end of the experiment, the resulting time-lapses were converted into a single 8 bit movie for each imaging field under analysis.
(§2) Collected movies were loaded into ImageJ (National Institutes of Health, USA) and analyzed as follows: In a first step, movies acquired on patterned substrates were filtered by Fast Fourier Transform (FFT). This procedure eliminates the scattering generated by the gratings. The time to onset of spreading on the respective substrates was then measured for each cell detected within all parallel time-lapses acquired. […] A mean time to onset of spreading was calculated for each substrate under analysis by averaging the values measured for all individual cells. HUVEC alignment to the gratings was measured for all cells detected in the last frame of each recorded movie. […]

[2] = tested on: Human umbilical vein endothelial cells (HUVEC); experiment: HUVEC alignment to the gratings (contact guidance); type: cell-based; details: HUVEC on gratings A-10; 50 μM blebbistatin or 10 μM Y27632
Experimental: as §1
Cell imaging was performed using an inverted Nikon-Ti wide-field microscope (Nikon, Jaw pan) equipped with an Orca R-2 CCD camera (Hamamatsu Photonics, Japan). […] Endothelial spreading on topographic substrates in topographic chips was recorded in parallel time-lapse movies for up to 6 different substrates (a flat control and five different gratings). […]
as §2, with “This procedure eliminates the scattering generated by the gratings.” left out

Row | Structure (SMILES) | effect of inhibitor on time to onset of spreading / spreading [1] | effect of inhibitor on time to onset of spreading / spreading ([1]; listed as ML7) | average alignment of inhibitor-treated cells to gratings [2] [°]
1 | O=S(=O)(c1cccc2c(I)cccc12)N1CCCNCC1 [ML-7] | No spreading could be measured | completely ablates HUVEC spreading | 
2 | C[C@@H](N)[C@H]1CC[C@H](C(=O)Nc2ccncc2)CC1 [Y27632] | no effect |  | 24.7±6.4
3 | Cc1ccc2c(c1)C(=O)C1(O)CCN(c3ccccc3)C1=N2 (stereo not drawn) [Blebbistatin] | no effect |  | 26.5±6.5
